Experimental data from patent publication US4228150A, “Method of inhibiting dextransucrase and oral compositions for use therein” (Iowa State University Research Foundation, Inc., priority 1979, dated 1980).

System: dextransucrase
Assay: Inhibition of dextransucrase synthesis of dextran from 14C-sucrose (radioactive polysaccharide on paper, slope versus control)
Type: biochemical, bacteria
Settings: compared to 6,1',6'-trifluorosucrose
Procedure: Dextransucrase was obtained from the culture supernatant of bacteria. Various amounts (6 to 30 mg/ml) of the fluorosucrose mixture prepared as in Example I were added to the enzyme (3 units/ml)* and allowed to incubate 10 minutes. At the end of this time, the enzyme was assayed by adding 1/2 volume of 0.3 M ^14 C-(U)-sucrose to the fluorosucrose-enzyme solution; equal aliquots were withdrawn with time and spotted onto 1.5×1.5 cm squares of Whatman 3 MM paper, which were immediately dropped into 20 ml anhydrous methanol. Three 200 ml volumes of methanol were added in 15 min. intervals. The papers were then removed, dried, and the radioactivity determined in a liquid scintillation spectrometer. The amount of radioactivity (polysaccharide formed) was plotted against the reaction time with sucrose (time of aliquot removed). The slopes of the resulting lines were determined and the percent inhibition calculated from the ratio of the slopes of the inhibited reactions to the slope of a control in which no inhibitor was added.
*Units are in terms of International Enzyme Units, that is, the amount of enzyme that will incorporate one micromole of monomer into polysaccharide per minute under conditions of optimum temperature and pH.

For O[C@@H]1[C@@H](O)[C@@H](O[C@]2(CCl)O[C@H](CCl)[C@@H](O)[C@@H]2O)O[C@H](CCl)[C@H]1O [6,1',6'-trichlorosucrose], the “effectiveness as an inhibitor for dextran” value was “relatively ineffective”.
